Reference: patent publication US20130338203A1, “TREATMENT OF ARTERIAL AGEING BY COMBINATION OF RAAS INHIBITOR AND HMG-CoA REDUCTASE INHIBITOR” (FARMICOM PHARMACEUTICAL COMPANY D.O.O., priority 2011, published 2013)
Read-outs that look alike come from different tables or passages of the source.

Assays:
thoracic aorta = assay: Endothelium-dependent relaxation of thoracic aorta after 6 weeks oral treatment (Example 13); assay type: in vivo, Wistar rats; conditions: rats, 6 weeks treatment p.o., NS
Method: Sixty Wistar rats of both sexes weighing 230-280 g, 20-24 weeks of age, were obtained from the Faculty of Medicine, Ljubljana. […] A regular 12 h circadian cycle was maintained and between 5 and 7 animals were kept in each cage. The temperature of the experimental environment was 23-25° C. […] After 4-8 weeks of therapy the animals were sacrificed, blood samples were collected and heart and thoracic aorta were isolated. Each group was composed of the same number of male and female rats. […] After mounting, rings were allowed to equilibrate at 20 mN resting tension (found to be optimal in previous experiments) for 60 min. During this period, the tension was periodically adjusted to the desired level and the K-H solution was changed every 10 minutes. After the equilibration period, the rings were contracted three times with 60 mmol/L KCl to achieve stable contractions. […] In control animals the endothelium-dependent relaxation of the thoracic aorta was constant. However, in rats treated with drugs the percentage of endothelium-dependent relaxation was increased in comparison to the control group.

heart = assay: Coronary flow rate after 6 weeks oral treatment (Example 13); assay type: in vivo, Wistar rats; conditions: rats, 6 weeks treatment p.o., 40-minute ischemia, reperfusion, P < 0.001
Method: Sixty Wistar rats of both sexes weighing 230-280 g, 20-24 weeks of age, were obtained from the Faculty of Medicine, Ljubljana. […] A regular 12 h circadian cycle was maintained and between 5 and 7 animals were kept in each cage. The temperature of the experimental environment was 23-25° C. […] After 4-8 weeks of therapy the animals were sacrificed, blood samples were collected and heart and thoracic aorta were isolated. Each group was composed of the same number of male and female rats.

[1] = in vivo; cited from earlier work
isolated rat heart [2] = assay: Coronary flow rate of isolated heart, ischaemia-reperfusion (Example 12)
isolated rat heart [3] = assay: LDH release rate, myocardial ischaemic-reperfusion injury of isolated heart (Example 12); conditions: losartan 1 μM; P < 0.01
[4] = test system: isolated rat aortic rings; assay: Endothelium-dependent relaxation of isolated aortic rings after incubation with drugs (Example 12)
brachial artery = conditions: cited from earlier work; for FMD, improvement (increase): Ex 8 valsartan group, 30 days vs before
common carotid artery = conditions: cited from earlier work
carotid artery = conditions: cited from earlier work
arterial wall = conditions: Ex 8 valsartan group, cited from earlier work
[5] = test system: high sensitivity C-reactive protein (hsCRP); conditions: Ex 9 valsartan group, 1 month treatment; calculated on data from co-pending patent application; cited from earlier work
[6] = Ex 8, 1 month treatment period with Valsartan only
[7] = Ex 8 valsartan group, 20 mg daily, 30 days vs before
[8] = Ex 8 valsartan group, 20 mg daily, 30 days
[9] = Ex 8 valsartan group, 7 months of rest period

Compound: CCCCc1nc(Cl)c(CO)n1Cc1ccc(-c2ccccc2-c2nn[nH]n2)cc1 [losartan]
- Increase of endothelium dependent relaxation compared to controls (thoracic aorta; daily dose 2 mg/kg): 7.3%
- Increase in coronary flow compared to controls (heart; daily dose 2 mg/kg): 89.6%
- half-life time (t1/2) in the blood plasma [1]: 1.5 to 2 h
- Increase in coronary flow compared to controls (isolated rat heart [2]; losartan 1 μM, P < 0.001): 67.3%
- Decrease of the LDH release rates compared to controls (isolated rat heart [3]): 58.6%
- Endothelium dependent relaxation compared to controls ([4]; losartan 10 μM, P < 0.01): 17.0%

Compound: CC(C)n1c(/C=C/C(O)CC(O)CC(=O)O)c(-c2ccc(F)cc2)c2ccccc21 (stereo not drawn) [fluvastatin]
- half-life time (t1/2) in the blood plasma [1]: about 2.5 hours

Compound: CC(C)c1c(C(=O)Nc2ccccc2)c(-c2ccccc2)c(-c2ccc(F)cc2)n1CC[C@@H](O)C[C@@H](O)CC(=O)O [atorvastatin]
- Increase of endothelium dependent relaxation compared to controls (thoracic aorta; daily dose 5 mg/kg): 6.9%
- Increase in coronary flow compared to controls (heart; daily dose 5 mg/kg): 86.9%
- Increase in coronary flow compared to controls (isolated rat heart [2]; atorvastatin 0.1 μM, P < 0.05): 52.9%
- Endothelium dependent relaxation compared to controls ([4]; atorvastatin 1 μM, P < 0.001): 21.1%

Compound: CCCCC(=O)N(Cc1ccc(-c2ccccc2-c2nnn[nH]2)cc1)[C@H](C(=O)O)C(C)C [valsartan]
- FMD, residual improvement in % of effect achieved after 1 month of treatment (brachial artery; Ex 8 valsartan group (20 mg daily, 30 days), 7 months of rest period): 30.4%
- FMD, improvement (increase) (brachial artery; 20 mg daily): +156.0%
- FMD, improvement (increase) (brachial artery; 20 mg daily, listed as Valsartan): 156.0%
- FMD, after treatment (brachial artery; Ex 8 valsartan group: healthy men 43.0 y (n=20), 20 mg daily, 30 days, data from co-pending patent application): 5.40%
- FMD, before treatment (brachial artery; Ex 8 valsartan group: healthy men 43.0 y (n=20), baseline, data from co-pending patent application): 2.11%
- PWV decreased by (common carotid artery; [6]): 7.2%
- PWV, improvement (common carotid artery; [7]): −7.2%
- PWV, after treatment (common carotid artery; [8]): 5.41 m/s
- PWV, residual improvement in % of effect achieved after 1 month of treatment (common carotid artery; [9]): 9.9%
- PWV, before treatment (common carotid artery; Ex 8 valsartan group, baseline): 5.80 m/s
- β-stiffness of the carotid artery decreased by (carotid artery; [6]): 13.7%
- β-stiffness, improvement (carotid artery; [7]): −13.7%
- β-stiffness, after treatment (carotid artery; [8]): 6.40 U
- β-stiffness, residual improvement in % of effect achieved after 1 month of treatment (carotid artery; [9]): 9.2%
- β-stiffness, before treatment (carotid artery; Ex 8 valsartan group, baseline): 7.28 U
- Arterial age according to age normogram, improvement (arterial wall; 20 mg daily, 30 days vs before): −7.0 years
- Arterial age according to age normogram, after treatment (arterial wall; 20 mg daily, 30 days): 38.0 years
- Arterial age according to age-related normogram (arterial wall; 7 months of rest period): 43.5 years
- Arterial age, difference to before treatment (in brackets) (arterial wall; 7 months of rest period): −1.5 years
- Arterial age according to age normogram, before treatment (arterial wall; baseline): 45.0 years
- Change in hs-CRP value after treatment [5]: +2.45%
- half-life time (t1/2) in the blood plasma [1]: about 6.0 hours
